In patent US20250122155A1, “NOVEL INDOLE DERIVATIVE, PHARMACEUTICAL COMPOSITION COMPRISING SAME, AND USE THEREOF” (MITOIMMUNE THERAPEUTICS INC., priority 2021, published 2025):
Where two headings read alike, the source gives them in different places.

What was measured:
[1] = Plasma and brain drug concentration after oral administration (HPLC-MS/MS); format: in vivo; settings: for drug concentration in brain / drug concentration in plasma / concentration at 2 h / concentration at 24 h / concentration at 0.5 h / concentration at 1 h / concentration at 4 h / concentration at 8 h / AUC(0-t): 10 mg/kg; for AUC(0-inf): read-out: area under the plasma concentration v. time curve (AUCinf); for concentration at 2 h / concentration at 24 h / concentration at 0.5 h / concentration at 1 h / concentration at 4 h / concentration at 8 h / AUC(0-t): ICR, mouse, po
Procedure: […] parameters can be represented as maximum concentration in plasma (Cmax), time taken until maximum concentration in plasma (Tmax), area under the plasma concentration-time curve (AUClast and AUCinf), and half-life (t1/2), and the like.
The compound of Example 2 was orally administered to ICR mice at a dose of 10 mg/kg, and drug concentration in mouse plasma was measured using HPLC-MS/MS spectroscopy at 0.5, 1, 2, 4, 8 and 24 hours. The mouse brains were removed at 2 or 24 hours, and drug concentration in the brain was measured using HPLC-MS/MS spectroscopy. The area under the plasma concentration v. time curve (AUCinf) was measured to be […], and at 2 hours after administration drug concentration in plasma was 398 ng/mL and brain drug concentration was measured at 683 ng/mL. […] Further, at 24 hours after administration, for Example 2, drug concentration in plasma was measured to be 5.6 ng/mL and drug concentration in the brain was measured at 11.4 ng/mL. With the brain-plasma drug concentration ratio at 2.04, drug exposure in the brain was still high.
The Comparative Example compound was orally administered to ICR mice at a dose of 10 mg/kg, and drug concentration in mouse plasma was measured using HPLC-MS/MS spectroscopy at 0.5, 1, 2, 4, 8 and 24 hours. The mouse brains were removed at 2 or 24 hours, and drug concentration in the brain was measured using HPLC-MS/MS spectroscopy.

H9C2 cells [2] = assay: Protective effect on heart cells against t-BHP (LDH release); format: cell-based; settings: H9C2, t-BHP 400 μM, 2 hours, read-out: EC50 (μM), Cell Protection Effect against t-BHP in Heart Cells
Procedure: In order to identify the protective effect with regard to heart cells, H9C2 cells were divided into 96-well plates by 1.5×10^4, and cultured for 24 hours. The respective wells were treated with compounds of the examples 3× serial diluted to final concentrations of 30, 10, 3, 1, 0.3, 0.1, 0.03 and 0.01 μM, then incubated for 15 to 20 minutes. After treating with t-BHP with a final concentration of 400 μM, incubation was performed for 2 hours. To confirm the protective effect of each compound, a Cytotoxicity LDH assay kit [Dojindo; CK12] was used to measure the degree of extracellular secretion of LDH. After 2-hour treatment of the cells with t-BHP was completed, 100 μL each of the supernatant in which the cells were placed was collected and moved to a new 96-well plate. 100 μL/well of the assay buffer included in the kit (same amount as the sample) was added, followed by wrapping with foil and reacting for 30 minutes at room temperature. Observing the change of color in the sample, 50 μL/well of stop solution was added, then an iD3 spectrometer was used to measure absorbance at 490 nm and calculate the EC50 values. The EC50 of the compounds of the examples is preferably no more than 1.0 μM, and more preferably no more than 0.3 μM.

H9C2 cells [3] = assay: Maintenance of intracellular calcium level in heart cells treated with t-BHP (FLIPR Calcium 6); format: cell-based, rat; settings: H9C2, t-BHP 150 μM
Procedure: To examine the maintenance effect on calcium level in heart cells, H9C2 cells were divided into a 96-well plate at 1.5×10^4 cells/well and cultured for 24 hours. To measure intracellular calcium level, a FLIPR Calcium 6 assay kit (Molecular devices; #R8190) was used. Following the experimental method provided by the manufacturer, cells were treated with probenecid and calcium-sensitive dye for 1.75 hours, and then the cells were treated with the compound of Example 2 for 0.25 hours (the final concentration of the compound was 0.02 or 0.01 μM). And the cells were treated with t-BHP to a final concentration of 150 μM, then intracellular calcium level was measured every 30 seconds in real time.
FIG. 1 is a graph regarding the regulatory effect of the compound of Example 2 on calcium level under t-BHP treatment. The ΔF/F(Max−Min) value on the vertical axis is the difference between the maximum and minimum fluorescence intensity values of the calcium-sensitive dye after treatment with t-BHP (150 μM), and this value increases as intracellular calcium level increases.

[4] = ICR mouse, oral 10 mg/kg, 24 hr
[5] = ICR mouse, oral 10 mg/kg, plasma
[6] = brain, 2 hr, read-out: drug concentration in brain
[7] = brain, 24 hr, read-out: drug concentration in brain
[8] = plasma, 2 hr, read-out: drug concentration in plasma
[9] = plasma, 24 hr, read-out: drug concentration in plasma
[10] = plasma, plasma, read-out: area under the plasma concentration v. time curve (AUClast)
[11] = plasma, read-out: AUClast, plasma
[12] = brain/plasma, ICR mouse, oral 10 mg/kg, 2 hr, read-out: brain-plasma drug concentration ratio (B/P ratio)

| SMILES | drug concentration in brain ([1]; ICR mouse, oral 10 mg/kg, 2 hr) | drug concentration in plasma ([1]; ICR mouse, oral 10 mg/kg, 2 hr) | AUC(0-inf) [1, 5] | concentration at 2 h [1, 6] | concentration at 24 h [1, 7] | concentration at 0.5 h ([1]; plasma) | concentration at 1 h ([1]; plasma) | concentration at 2 h [1, 8] | concentration at 4 h ([1]; plasma) | concentration at 8 h ([1]; plasma) | concentration at 24 h [1, 9] | AUC(0-t) [1, 10] | AUC(0-t) [1, 11] | Kp at 2 h [1, 12] | also measured |
| --- | --- | --- | --- | --- | --- | --- | --- | --- | --- | --- | --- | --- | --- | --- | --- |
| OCc1cc(NC2CCCC2)c2[nH]c(-c3ccccc3)cc2c1 [Comparative Example, reference compound] | 95 ng/mL | 1122 ng/mL | 5460 ng·h/mL | 95 ng/mL | 0 ng/mL | 1640 ng/mL | 2110 ng/mL | 1120 ng/mL | 389 ng/mL | 50.8 ng/mL | 0 ng/mL | 5360 ng·h/mL | 5360 ng·h/mL | 0.08 | drug concentration in brain [1, 4]: no drug concentration was measured; drug concentration in plasma [1, 4]: no drug concentration was measured |
| COCCOCc1cc(NC2CCCC2)c2[nH]c(-c3ccccc3)cc2c1 [Example 2, N-cyclopentyl-5-(2-methoxyethoxymethyl)-2-phenyl-1H-indol-7-amine] | 682.8 ng/mL | 398.2 ng/mL | 5420 ng·h/mL | 683 ng/mL | 11.4 ng/mL | 334 ng/mL | 337 ng/mL | 398 ng/mL | 672 ng/mL | 232 ng/mL | 5.6 ng/mL | 5400 ng·h/mL | 5400 ng·h/mL | 1.71 | EC50 (H9C2 cells [2]): ≤ 0.3 µM; intracellular calcium level, ΔF/F(Max−Min) (H9C2 cells [3]; compound 0.01 μM): significantly decreased; intracellular calcium level, ΔF/F(Max−Min) (H9C2 cells [3]; compound 0.02 μM): within normal range; AUClast, brain ([1]; ICR mouse, oral 10 mg/kg): 8319.0 ng·h/g; Kp at 24 h ([1]; brain/plasma, ICR mouse, oral 10 mg/kg, 24 hr, read-out: brain-plasma drug concentration ratio (B/P ratio)): 2.04; Kp ([1]; brain/plasma, ICR mouse, oral 10 mg/kg, read-out: B/P ratio of AUClast): 1.74 |
